These results are taken from patent US20090215857A1 (Pfizer Products Inc., priority 2005, published 2009).

The target of test [1] is T1, human serotonin transporter (Homo sapiens, UniProt P31645).
T1 construct: expressed in transfected cells; host or cells: HEK-293
Kind of test: hSERT receptor binding ([125I]-RTI-55 radioligand). The conditions noted are these: membranes of HEK-293 cells transfected with human serotonin transporter cDNA; 50 pM [125I]-RTI-55; IC50 converted by Cheng-Prusoff; read-out: SERT Ki. A digest of the protocol: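 Ki values derive via Cheng-Prusoff from IC50s of displacement of 50 pM [125I]-RTI-55 binding to transfected HEK-293 membranes, 90 min at room temperature in pH 7.4 Krebs-HEPES buffer. Compounds spanned 10^−12 to 10^−5 M, in duplicate; nonspecific binding was set with 10 μM citalopram.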

In test [2] the target is T2, neuronal α-BGTX-insensitive central nicotinic receptor (Rattus norvegicus, UniProt P09483+P12390).
T2 construct: Membrane homogenates of cerebral cortex (800 μg protein) are incubated; from tissue; host or cells: rat cerebral cortex membrane homogenates
T2 sequence (P09483 31-630): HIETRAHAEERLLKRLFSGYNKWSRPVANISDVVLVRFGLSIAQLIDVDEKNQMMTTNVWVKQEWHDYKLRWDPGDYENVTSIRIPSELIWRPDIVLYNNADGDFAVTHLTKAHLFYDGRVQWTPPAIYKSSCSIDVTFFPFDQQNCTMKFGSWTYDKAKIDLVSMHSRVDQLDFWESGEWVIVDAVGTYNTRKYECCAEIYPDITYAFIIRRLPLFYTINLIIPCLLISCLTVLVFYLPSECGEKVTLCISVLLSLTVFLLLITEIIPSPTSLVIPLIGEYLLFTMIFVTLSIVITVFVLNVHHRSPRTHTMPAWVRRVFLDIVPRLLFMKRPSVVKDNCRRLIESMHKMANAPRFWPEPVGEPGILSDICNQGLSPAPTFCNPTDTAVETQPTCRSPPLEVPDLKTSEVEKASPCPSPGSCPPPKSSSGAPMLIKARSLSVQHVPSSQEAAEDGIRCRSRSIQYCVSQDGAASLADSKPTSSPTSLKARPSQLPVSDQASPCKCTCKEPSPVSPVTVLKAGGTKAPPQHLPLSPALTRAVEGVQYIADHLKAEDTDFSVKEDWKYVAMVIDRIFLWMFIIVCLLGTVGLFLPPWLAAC
T2 sequence (P12390 25-500): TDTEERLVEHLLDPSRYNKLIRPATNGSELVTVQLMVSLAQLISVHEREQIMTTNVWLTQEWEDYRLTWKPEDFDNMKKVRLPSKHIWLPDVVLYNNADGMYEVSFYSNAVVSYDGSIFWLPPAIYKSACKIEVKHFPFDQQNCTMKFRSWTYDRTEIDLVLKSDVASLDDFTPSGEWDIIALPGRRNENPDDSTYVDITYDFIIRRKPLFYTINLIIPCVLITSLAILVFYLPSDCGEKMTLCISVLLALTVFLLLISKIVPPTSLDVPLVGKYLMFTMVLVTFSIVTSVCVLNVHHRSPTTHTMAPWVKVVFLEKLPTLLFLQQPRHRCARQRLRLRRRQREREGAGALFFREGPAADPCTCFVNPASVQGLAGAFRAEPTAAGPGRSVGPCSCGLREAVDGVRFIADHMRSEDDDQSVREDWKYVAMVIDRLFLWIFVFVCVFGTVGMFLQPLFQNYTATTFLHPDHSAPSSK
In words: [3H]cytisine radioligand binding assay, rat cerebral cortex. The conditions noted are these: 10 μM compound; 1.5 nM [3H]cytisine; rat cerebral cortex membrane homogenates; read-out: Percent inhibition at 10 μM of compound (control radioligand specific binding). As for the experimental part:
Several compounds were evaluated for their affinity for the neuronal α-BGTX-insensitive central nicotinic receptor in the rat cerebral cortex determined in a radioligand binding assay.
Experimental protocol Membrane homogenates of cerebral cortex (800 μg protein) are incubated for 75 min at 4° C. with 1.5 nM [^3H]cytisine in the absence or presence of the test compound (10 μM in a buffer containing 50 mM Tris-HCl (pH 7.4), 120 mM NaCl, 5 mM KCl, 1 mM MgCl2 and 2 mM CaCl2.
Nonspecific binding is determined in the presence of 10 μM nicotine.
Following incubation, the samples are filtered rapidly under vacuum through glass fiber filters (Filtermat B, Wallac) presoaked with 0.3% PEI (polyethyleneimine) and rinsed several times with ice-cold 50 mM Tris-HCl using a 48-sample cell harvester (Mach II, Tomtec). The filters are dried then counted for radioactivity in a scintillation counter (Betaplate 1204, Wallac) using a solid scintillator (Meltilex B/HS, Wallac).
The results are expressed as a percent inhibition of the control radioligand specific binding.
The standard reference compound is nicotine, which is tested in each experiment at several concentrations to obtain a competition curve from which its IC50 is calculated.

The target of test [3] is T3, human norepinephrine transporter (Homo sapiens, UniProt P23975).
T3 construct: expressed in transfected cells; host or cells: HEK-293
T3 sequence (P23975 whole entry): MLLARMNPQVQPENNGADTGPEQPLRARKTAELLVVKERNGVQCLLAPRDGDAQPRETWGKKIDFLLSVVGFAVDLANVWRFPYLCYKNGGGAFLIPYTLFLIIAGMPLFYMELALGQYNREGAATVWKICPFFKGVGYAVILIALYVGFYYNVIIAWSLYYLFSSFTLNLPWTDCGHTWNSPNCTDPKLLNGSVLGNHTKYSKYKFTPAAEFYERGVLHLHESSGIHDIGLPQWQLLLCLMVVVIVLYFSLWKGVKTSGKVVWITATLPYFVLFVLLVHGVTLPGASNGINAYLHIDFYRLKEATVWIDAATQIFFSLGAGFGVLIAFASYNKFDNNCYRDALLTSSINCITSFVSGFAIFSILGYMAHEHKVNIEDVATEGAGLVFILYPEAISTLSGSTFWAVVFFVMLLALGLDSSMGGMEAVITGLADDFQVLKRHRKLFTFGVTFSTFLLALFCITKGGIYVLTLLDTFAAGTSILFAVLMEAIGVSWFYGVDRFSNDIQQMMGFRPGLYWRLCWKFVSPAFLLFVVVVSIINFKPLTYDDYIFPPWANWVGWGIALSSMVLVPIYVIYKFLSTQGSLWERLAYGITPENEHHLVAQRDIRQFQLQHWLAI
Kind of test: hNET receptor binding ([125I]-RTI-55 radioligand). The conditions noted are these: membranes of HEK-293 cells transfected with human norepinephrine transporter cDNA; 50 pM [125I]-RTI-55; IC50 converted by Cheng-Prusoff; read-out: NET Ki. In outline:
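Membranes from HEK-293 cells expressing human NET were incubated 90 min at room temperature with 50 pM [125I]-RTI-55 and test compound (10^−5M to 10^−12M) in Krebs-HEPES, pH 7.4.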

The structures appear in SMILES notation. Structures can show the parent of a compound that is named as a salt.

T1 sequence (P31645 whole entry): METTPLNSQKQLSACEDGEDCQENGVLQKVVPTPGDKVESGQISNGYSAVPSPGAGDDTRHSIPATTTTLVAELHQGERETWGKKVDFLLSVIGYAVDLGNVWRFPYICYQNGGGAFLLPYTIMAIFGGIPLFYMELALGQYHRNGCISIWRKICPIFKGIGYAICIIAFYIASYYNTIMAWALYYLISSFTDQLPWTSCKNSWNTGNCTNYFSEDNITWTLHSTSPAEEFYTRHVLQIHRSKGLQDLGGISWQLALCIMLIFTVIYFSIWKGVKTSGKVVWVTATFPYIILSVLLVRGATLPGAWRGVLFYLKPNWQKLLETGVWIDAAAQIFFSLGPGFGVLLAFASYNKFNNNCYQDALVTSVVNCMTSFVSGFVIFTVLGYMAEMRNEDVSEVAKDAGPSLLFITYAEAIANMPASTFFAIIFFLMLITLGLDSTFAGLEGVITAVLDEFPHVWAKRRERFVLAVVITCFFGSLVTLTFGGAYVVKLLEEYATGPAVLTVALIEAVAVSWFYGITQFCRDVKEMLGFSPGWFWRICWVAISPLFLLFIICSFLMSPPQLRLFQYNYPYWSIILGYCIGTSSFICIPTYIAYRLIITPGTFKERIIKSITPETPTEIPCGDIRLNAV

On to `Fc1cc(F)cc(-c2ccccc2CO[C@H]2CCNC2)c1` [Example A-17, (S)-3-(3′,5′-Difluoro-biphenyl-2-ylmethoxy)-pyrrolidine hydrochloride], for which the values for the Ki in test [1] and in test [3] were 15.1 nM and 93.5 nM, respectively. The inhibition (usually the change of the read-out against control, counted positive when it falls) at 10 µM in test [2] is at most 21%.

Turning to `FC(F)(F)c1cccc(-c2ccccc2CO[C@H]2CCNC2)c1` [Example A-18, (S)-3-(3′-Trifluoromethyl-biphenyl-2-ylmethoxy)-pyrrolidine hydrochloride], the Ki (usually a dissociation constant, usually derived from enzyme kinetics or from competition with a known ligand) amounted to 13 nM in test [1] and 103 nM in test [3]. Besides, in test [2], the inhibition at 10 µM is at most 21%.
